Like-named read-outs stand apart in the source and are kept apart here.
Key:
[1] = system: MRSA; experiment: Membrane depolarization study (diSC35 dye); assay type: cell-based, methicillin-resistant Staphylococcus aureus
Excerpt: (§1) To probe the mechanism of antibacterial activity, we first carried out a membrane depolarization study with the membrane potential-sensitive dye 3,3′-dipropylthiadicarbocyanine iodide (diSC35) (Figure 2A,B). […] However, if the membrane is disrupted, and the fluorophore is released from the membrane, fluorescence will improve dramatically.

[2] = system: E. coli; experiment: Inner membrane (IM) permeabilization (ONPG hydrolysis assay); assay type: cell-based; settings: 8 × MIC, 4 × MIC, 2 × MIC and 1 × MIC, 37 °C
Experimental: We next used the o-nitrophenyl-β-d-galactopyranoside (ONPG) hydrolysis assay to test the ability of the lead compound YW-1 to permeabilize the inner membrane of Gram-negative bacteria (Figure 3B). If the lead compound YW-1 compromised the bacterial inner membrane, ONPG would interact with the cytoplasmic enzyme β-galactosidase to form o-nitrophenol, which can be measured under OD 420 nm.
Mid-log phase E. coli was obtained in Mueller Hinton Broth with 2% lactose at 37 °C; then, it was centrifuged at 3000× g rpm for 10 min at 4 °C and washed with 20 mM glucose and 1.5 mM ONPG in […] HEPES buffer one time. Next, the bacterial solution was diluted until OD600 = 0.1 using the same buffer. Following this, 50 μL of diluted bacterial solution was injected into a 96-well plate, and 50 μL of YW-1 in different concentrations and melittin were injected into the bacterial solution, respectively. The OD420 was read at 37 °C every 6 min until the […] reached the highest plateau.

[3] = system: Human red blood cells; experiment: Hemolytic activity; settings: HC50 over MIC against MRSA
Experimental: (§10) Human red blood cells were washed with 1 × PBS buffer, then centrifuged at 700 g for 10 min. After discarding the top clear solution, the bottom cells were diluted to obtain 5% solution using 1 × PBS buffer.
(§11) Then, 50 μL of cell solution was injected into 96-well plates. Following this, 50 μL of synthesized compounds with different concentrations from 250 to 1.95 μg/mL were added into 96-well plates. Then, the mixture was incubated for 1 h at 37 °C. After centrifuging at 3500× g rpm for 10 min, 30 μL of the supernatant was transferred into a new 96-well plate with 100 μL of 1 × PBS buffer. With the same microplate reader, the data of absorbance at 540 nm were compared. Positive control: 2% Triton-100. Calculation formula: percentage of hemolysis = [(Absorbance of sample-Absorbance of PBS)/(Absorbance of Triton-Absorbance of PBS)] × 100

[4] = system: MRSA; experiment: Drug resistance study (serial passages); assay type: cell-based, methicillin-resistant Staphylococcus aureus; settings: after 14 generations
Experimental: Since the abuse of antibiotics, antibacterial drug resistance has become an increasingly serious threat. Thus, it is of great importance to assess the drug resistance of newly developed lead compounds.
The first generation of MIC data of YW-1 against MRSA and E. coli was already obtained in an MIC study. Then, the MRSA of the first generation in the well next to the last clear well was diluted to the mid-log phase, and MICs were tested at 37 °C. This step was repeated for 14 passages. The data of drug resistance for E. coli were obtained using the same method with bacterial E. coli.

[5] = system: E. coli; experiment: Outer membrane (OM) permeabilization (NPN uptake); assay type: cell-based; settings: 1 × MIC, compared with 1% Triton
Excerpt: Next, using E. coli as a microorganism, we evaluated the OM permeabilization of YW-1. In aqueous conditions, 1-N-Phenylnaphthylamine (NPN) is blocked by the cell wall. However, if the OM is permeabilized, and NPN is taken up as a result, the fluorescence intensity will increase, compared to non-treated OM [13].

[6] = system: MRSA (ATCC 33591); assay type: cell-based, methicillin-resistant Staphylococcus aureus
Experimental: (§2) Chemical reagents and solvents were bought from Sigma Aldrich, Oakwood, TCI, and Chem-Impex. Final products were purified with Waters Breeze 2 HPLC and lyophilized using Labconco lyophilizer. HPLC traces of the final product were collected using 5–95% acetonitrile in water with 0.1% HPLC-grade TFA for at least 40 min. The nuclear magnetic resonance (NMR) data were collected using the Agilent 600 MHz NEO instrument. High-resolution mass spectra of compounds (Table S1) were collected using an Agilent Technologies 6540 UHD accurate-mass Q-TOF LC/MS spectrometer. Antibacterial assays and mechanism of action studies were performed using a Biotec multimode microplate reader synergy H4. Six different species of bacteria were used for bacteria assay tests, such as MRSA (ATCC 33591), MRSE (RP62A), VREF (ATCC 700802), E. coli (ATCC 25922), K. pneumoniae (ATCC 13383), and P. aeruginosa (ATCC 27853).
(§3) Concisely, E. coli, K. pneumoniae, P. aeruginosa, MRSA, MRSE, and VREF were cultivated in 37 °C TSB medium for 16 h. Subsequently, 4 ml of new TSB medium was added to 100 μL of cultivated bacterial solution and incubated for another 6 h to reach the mid-log phase. Next, 96-well plates were injected with 50 μL of bacterial solution that reached mid-log phase and 50 μL of compounds with different concentrations, which ranged from 0.75–25 μg/mL. Then, the 96-wells plates were incubated for another 16 h at 37 °C. After 16 h, MICs were determined by a multimode microplate reader.

[7] = system: E. coli; experiment: Fluorescence microscopy (DAPI / PI staining); assay type: cell-based; settings: 2 × MIC, 2 h at 37 °C, PI channel
Experimental: (§4) To further assess that the bacteria were killed with YW-1 by comprising the cell membrane, we conducted a fluorescence microscopy experiment. Two dyes, 4′,6-diamidino-2-phenylindole (DAPI) and propidium iodide (PI), were employed in this experiment. […] Instead, DAPI can be used to stain both dead and live cells because it is cell-permeable.
(§5) A total of 30 μL of mid-log phase bacterial solution was diluted to 3 mL in TSB medium with 2 × MIC of YW-1. The mixture was incubated for 2 h at 37 °C. Following this, the bacterial solution was centrifuged at 3000 rpm for 10 min. The top solution was thrown away, the bottom bacterial pellets were washed with PBS buffer, and PI (5 μg/mL) and DAPI (10 μg/mL) were added sequentially on ice under a dark environment. After dyeing with PI and DAPI, the bacterial cells were washed with PBS buffer. Immediately after 100 μL of PBS was added to suspend the bacterial cell, 10 μL of the suspended solution was dropped onto the slide, and data were obtained using a Zeiss Axiovert 200 inverted microscope.

[8] = system: Human red blood cells; settings: red cells of human, 1 h
Experimental: as §10, §11

[9] = system: E. coli; experiment: Membrane depolarization study (diSC35 dye); assay type: cell-based
Excerpt: as §1

[10] = system: MRSA; experiment: Time-kill kinetics study; assay type: cell-based, methicillin-resistant Staphylococcus aureus; settings: 4 × MIC and 8 × MIC, TSB medium
Experimental: (§6) To evaluate how rapidly bacteria could be eradicated, the lead compound YW-1 was examined for its ability to eradicate MRSA and E. coli by studying the time-kill kinetics.
(§7) Different concentrations of YW-1 and ciprofloxacin were mixed with 300 μL of mid-log phase bacterial solution in TSB medium. The mixture was incubated for 0, 10, and 30 min and 1 and 2 h, respectively. At the time, E. coli were diluted 100-fold, and the MRSA was diluted 100-fold. A total of 100 μL of each was transferred on TSB agar plates. After 16 h at 37 °C, CFUs were read using the Biotec multimode microplate reader.

[11] = system: MRSA; experiment: Fluorescence microscopy (DAPI / PI staining); assay type: cell-based, methicillin-resistant Staphylococcus aureus; settings: 2 × MIC, 2 h at 37 °C, PI channel
Experimental: as §4, §5

[12] = system: MRSA; experiment: Transmission electron microscopy (TEM); assay type: cell-based, methicillin-resistant Staphylococcus aureus; settings: 2 × MIC, 2 h
Experimental: (§8) TEM microscopy offers convenient access to check the intactness of cell membranes. The cell membranes of MRSA and E. coli were intact.
(§9) An amount of 30 μL of mid-log phase MRSA and E. coli was diluted to 3 mL in TSB medium with 2 × MIC of YW-1, and the mixture was incubated for 2 h. The bacterial pellets were centrifuged at 3000× g rpm for 10 min. For the next step, PBS buffer was used to wash three times. Then, the suspended bacterial samples were dropped on grids and dried in a vacuum oven at 45 °C. TEM images were obtained using a FEI Morgagni 268D TEM, with an Olympus MegaView III CAMERA on the microscope, at 60 kV.

[13] = system: E. coli; experiment: Transmission electron microscopy (TEM); assay type: cell-based; settings: 2 × MIC, 2 h
Experimental: as §8, §9

[14] = system: P. aeruginosa (ATCC 27853); assay type: cell-based; settings: ATCC 27853, 16 h
Experimental: as §2, §3

[15] = system: K. pneumoniae (ATCC 13383); assay type: cell-based; settings: ATCC 13383, 16 h
Experimental: as §2, §3

[16] = system: E. coli (ATCC 25922); assay type: cell-based; settings: ATCC 25922, 16 h
Experimental: as §2, §3

[17] = system: MRSE (RP62A); assay type: cell-based; settings: 16 h
Experimental: as §2, §3

[18] = system: E.F. (VREF, ATCC 700802); assay type: cell-based; settings: ATCC 700802, 16 h
Experimental: as §2, §3

[19] = system: E. coli; experiment: Time-kill kinetics study; assay type: cell-based; settings: 4 × MIC and 8 × MIC, TSB medium
Experimental: as §6, §7

[20] = TSB medium, 16 h at 37 °C, compounds 0.75–25 μg/mL, microplate reader

SMILES	Selectivity Index (HC50/MICMRSA) [3]	MIC, Gram-Positive (+), MRSA ([6]; ATCC 33591, 16 h) [µg/mL]	HC50 [8] [µg/mL]	MIC, Gram-Negative (−), P.A. [14] [µg/mL]	MIC, Gram-Negative (−), K.P. [15] [µg/mL]	MIC, Gram-Negative (−), E. coli [16] [µg/mL]	MIC, Gram-Positive (+), MRSE [17] [µg/mL]	MIC, Gram-Positive (+), E.F. [18] [µg/mL]	MIC, Gram-Positive (+), MRSA [6, 20] [µg/mL]	other results
CCCCCCCCCCCCCCCC(=O)N[C@@H](CC(C)C)CN(CC(N)=O)C(=O)CCN(C[C@@H](N)CCCCN)C(=O)CCN [YW-1]	>41.7	1.5 to 3	>125	6 to 12.5	12.5 to 25	3.0 to 6.0	1.5 to 3	1.5 to 3		fluorescence intensity of diSC35 (membrane depolarization) ([1]; MRSA treated with different concentrations): dose-dependent increases in fluorescence intensity; fluorescence of diSC35 compared with positive control Triton ([1]; MRSA, at a two-fold of MIC or above): even more intensive fluorescence than the positive control Triton; inner membrane permeabilization, OD 420 nm intensity [2]: enhanced to a great extent; increase in MIC (drug resistance) [4]: did not have an obvious change in MIC; Outer membrane permeability [5]: 98%; PI staining (compromised membrane) [7]: red fluorescence was observed under the PI channel; fluorescence intensity of diSC35 (membrane depolarization) ([9]; E. coli treated with different concentrations): dose-dependent increases in fluorescence intensity; fluorescence of diSC35 compared with positive control Triton ([9]; E. coli, at a two-fold of MIC or above): even more intensive fluorescence than the positive control Triton; time to remove bacteria thoroughly [10]: ≤ 2 h; PI staining (compromised membrane) [11]: red fluorescence was observed under the PI channel; membrane intactness by TEM [12]: the membranes clearly demonstrated damages; membrane intactness by TEM [13]: the membranes clearly demonstrated damages; time to remove bacteria thoroughly [19]: ≤ 2 h
CCCCCCCCCCCCCCCC(=O)N[C@@H](Cc1ccccc1)CN(CC(N)=O)C(=O)CCN(C[C@@H](N)CCCCN)C(=O)CCN [YW-2]	>41.7	1.5 to 3	>125	12.5 to 25	6 to 12.5	3.0 to 6.0	1.5 to 3	1.5 to 3		
CCCCCCCCCCCCCCCC(=O)N[C@@H](C)CN(CC(N)=O)C(=O)CCN(C[C@@H](N)CCCCN)C(=O)CCN [YW-3]	>83.3		>125	6 to 12.5	>25	3.0 to 6.0	6 to 12.5	3.0 to 6.0	0.75 to 1.5	
CCCCCCCCCCCCCCCC(=O)N[C@@H](Cc1ccc(O)cc1)CN(CC(N)=O)C(=O)CCN(C[C@@H](N)CCCCN)C(=O)CCN [YW-4]	>83.3		>125	>25	>25	3.0 to 6.0	3.0 to 6.0	3.0 to 6.0	0.75 to 1.5	

— article PMC10094648, “Short, Lipidated Dendrimeric γ-AApeptides as New Antimicrobial Peptidomimetics” (International Journal of Molecular Sciences, 2023)
